Test results reported in ChEMBL document CHEMBL4507291 (2021).

Legend:
[1] = biological target: Neuropeptide Y receptor type 1 (Homo sapiens) (UniProt P25929); test: Inhibition of Neuropeptide Y Y1 at 10 µM in the Eurofins-Panlabs radioligand binding assay (Eurofins_assay_257010); conditions: Compound concentration 10.0 uM
[2] = biological target: T1, Cytoplasmic tyrosine-protein kinase BMX (Homo sapiens) (UniProt P51813); test: BMX Kinase screen; conditions: Compound concentration 1.0 uM
T1 sequence (whole entry): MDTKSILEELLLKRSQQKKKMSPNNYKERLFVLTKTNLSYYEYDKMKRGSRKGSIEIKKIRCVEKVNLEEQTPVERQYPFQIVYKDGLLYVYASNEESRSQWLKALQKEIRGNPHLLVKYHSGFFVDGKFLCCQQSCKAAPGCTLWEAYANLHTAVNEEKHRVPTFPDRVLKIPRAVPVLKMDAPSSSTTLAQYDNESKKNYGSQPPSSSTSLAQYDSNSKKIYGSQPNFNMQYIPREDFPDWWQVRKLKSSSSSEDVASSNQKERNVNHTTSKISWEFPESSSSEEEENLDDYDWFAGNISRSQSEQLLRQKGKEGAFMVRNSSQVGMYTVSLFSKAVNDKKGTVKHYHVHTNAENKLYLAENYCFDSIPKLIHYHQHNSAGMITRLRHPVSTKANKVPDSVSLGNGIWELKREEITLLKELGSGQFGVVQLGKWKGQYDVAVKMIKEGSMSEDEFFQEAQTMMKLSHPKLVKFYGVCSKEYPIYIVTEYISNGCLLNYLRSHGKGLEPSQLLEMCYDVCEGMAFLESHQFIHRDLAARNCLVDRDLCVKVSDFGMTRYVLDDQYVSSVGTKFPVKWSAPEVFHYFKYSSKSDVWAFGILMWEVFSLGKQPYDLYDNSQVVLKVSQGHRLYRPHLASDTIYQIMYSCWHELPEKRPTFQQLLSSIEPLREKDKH

[3] = biological target: Calcium/calmodulin-dependent protein kinase type II subunit delta (Homo sapiens) (UniProt Q13557); test: CAMK2D (CaMKII delta) Kinase screen; conditions: Compound concentration 1.0 uM
Calcium/calmodulin-dependent protein kinase type II subunit delta (Homo sapiens), sequence (Q13557 whole entry, canonical isoform): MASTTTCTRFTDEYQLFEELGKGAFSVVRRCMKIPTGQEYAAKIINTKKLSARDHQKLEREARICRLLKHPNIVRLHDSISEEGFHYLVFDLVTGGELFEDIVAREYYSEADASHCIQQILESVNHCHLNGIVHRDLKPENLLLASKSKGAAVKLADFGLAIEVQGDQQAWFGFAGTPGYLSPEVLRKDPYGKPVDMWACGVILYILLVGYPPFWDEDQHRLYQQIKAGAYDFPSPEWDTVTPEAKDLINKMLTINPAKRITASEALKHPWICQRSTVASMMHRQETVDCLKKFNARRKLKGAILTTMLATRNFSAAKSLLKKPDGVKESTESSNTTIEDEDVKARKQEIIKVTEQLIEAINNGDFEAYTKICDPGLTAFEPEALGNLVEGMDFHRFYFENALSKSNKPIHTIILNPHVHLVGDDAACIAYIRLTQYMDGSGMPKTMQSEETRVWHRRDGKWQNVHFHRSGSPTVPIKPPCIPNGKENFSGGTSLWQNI

[4] = biological target: Casein kinase I isoform alpha (Homo sapiens) (UniProt P48729); test: CSNK1A1 (CK1 alpha 1) Kinase screen; conditions: Compound concentration 1.0 uM
Casein kinase I isoform alpha (Homo sapiens), sequence (P48729 2-337 limits assumed): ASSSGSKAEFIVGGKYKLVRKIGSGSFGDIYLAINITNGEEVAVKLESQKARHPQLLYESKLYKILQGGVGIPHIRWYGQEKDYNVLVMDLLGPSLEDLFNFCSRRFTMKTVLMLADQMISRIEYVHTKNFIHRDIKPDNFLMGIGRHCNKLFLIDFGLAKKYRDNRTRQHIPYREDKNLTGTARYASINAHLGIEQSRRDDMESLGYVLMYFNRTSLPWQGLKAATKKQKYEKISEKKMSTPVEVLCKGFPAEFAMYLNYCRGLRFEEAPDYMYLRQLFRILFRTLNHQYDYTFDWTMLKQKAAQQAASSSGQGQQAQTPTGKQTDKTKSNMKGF

[5] = biological target: Casein kinase I isoform gamma-2 (Homo sapiens) (UniProt P78368); test: CSNK1G2 (CK1 gamma 2) Kinase screen; conditions: Compound concentration 1.0 uM
Casein kinase I isoform gamma-2 (Homo sapiens), sequence (P78368 whole entry, looked up, canonical isoform): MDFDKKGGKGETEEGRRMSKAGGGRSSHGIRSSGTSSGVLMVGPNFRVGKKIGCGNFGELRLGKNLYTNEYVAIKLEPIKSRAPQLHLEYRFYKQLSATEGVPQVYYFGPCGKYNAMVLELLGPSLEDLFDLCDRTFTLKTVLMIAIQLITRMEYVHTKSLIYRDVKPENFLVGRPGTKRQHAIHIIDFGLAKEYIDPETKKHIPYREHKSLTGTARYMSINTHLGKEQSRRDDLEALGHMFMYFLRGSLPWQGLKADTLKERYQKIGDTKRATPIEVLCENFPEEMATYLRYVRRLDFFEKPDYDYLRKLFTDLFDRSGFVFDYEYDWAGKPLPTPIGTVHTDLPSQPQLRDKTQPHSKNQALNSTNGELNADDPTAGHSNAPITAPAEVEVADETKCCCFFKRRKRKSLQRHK

[6] = biological target: Fibroblast growth factor receptor 4 (Homo sapiens) (UniProt P22455); test: FGFR4 Kinase screen; conditions: Compound concentration 1.0 uM
Fibroblast growth factor receptor 4 (Homo sapiens), sequence (P22455 22-802 limits assumed): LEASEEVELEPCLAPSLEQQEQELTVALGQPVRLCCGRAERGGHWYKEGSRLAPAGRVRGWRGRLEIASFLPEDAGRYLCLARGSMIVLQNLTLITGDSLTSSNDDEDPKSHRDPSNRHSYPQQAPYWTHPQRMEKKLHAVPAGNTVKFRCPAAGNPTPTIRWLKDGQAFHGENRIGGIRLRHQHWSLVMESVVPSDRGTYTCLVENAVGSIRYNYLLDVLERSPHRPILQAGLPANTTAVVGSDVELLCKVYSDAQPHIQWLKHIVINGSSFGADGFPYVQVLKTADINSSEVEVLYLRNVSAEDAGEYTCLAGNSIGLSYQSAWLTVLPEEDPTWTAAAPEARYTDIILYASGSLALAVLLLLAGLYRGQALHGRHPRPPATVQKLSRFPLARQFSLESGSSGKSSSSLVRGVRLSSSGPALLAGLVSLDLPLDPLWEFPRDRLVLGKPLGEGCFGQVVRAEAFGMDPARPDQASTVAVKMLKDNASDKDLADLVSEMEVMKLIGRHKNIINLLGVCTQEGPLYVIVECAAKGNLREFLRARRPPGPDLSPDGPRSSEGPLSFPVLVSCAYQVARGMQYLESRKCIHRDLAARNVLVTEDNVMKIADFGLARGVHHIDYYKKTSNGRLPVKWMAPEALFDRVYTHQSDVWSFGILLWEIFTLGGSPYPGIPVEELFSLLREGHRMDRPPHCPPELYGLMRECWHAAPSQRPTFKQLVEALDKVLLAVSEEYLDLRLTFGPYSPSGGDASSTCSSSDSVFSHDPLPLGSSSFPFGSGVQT

[7] = biological target: Mitogen-activated protein kinase kinase kinase 14 (Homo sapiens) (UniProt Q99558); test: MAP3K14 (NIK) Kinase screen; conditions: Compound concentration 1.0 uM
Mitogen-activated protein kinase kinase kinase 14 (Homo sapiens), sequence (Q99558 whole entry, looked up): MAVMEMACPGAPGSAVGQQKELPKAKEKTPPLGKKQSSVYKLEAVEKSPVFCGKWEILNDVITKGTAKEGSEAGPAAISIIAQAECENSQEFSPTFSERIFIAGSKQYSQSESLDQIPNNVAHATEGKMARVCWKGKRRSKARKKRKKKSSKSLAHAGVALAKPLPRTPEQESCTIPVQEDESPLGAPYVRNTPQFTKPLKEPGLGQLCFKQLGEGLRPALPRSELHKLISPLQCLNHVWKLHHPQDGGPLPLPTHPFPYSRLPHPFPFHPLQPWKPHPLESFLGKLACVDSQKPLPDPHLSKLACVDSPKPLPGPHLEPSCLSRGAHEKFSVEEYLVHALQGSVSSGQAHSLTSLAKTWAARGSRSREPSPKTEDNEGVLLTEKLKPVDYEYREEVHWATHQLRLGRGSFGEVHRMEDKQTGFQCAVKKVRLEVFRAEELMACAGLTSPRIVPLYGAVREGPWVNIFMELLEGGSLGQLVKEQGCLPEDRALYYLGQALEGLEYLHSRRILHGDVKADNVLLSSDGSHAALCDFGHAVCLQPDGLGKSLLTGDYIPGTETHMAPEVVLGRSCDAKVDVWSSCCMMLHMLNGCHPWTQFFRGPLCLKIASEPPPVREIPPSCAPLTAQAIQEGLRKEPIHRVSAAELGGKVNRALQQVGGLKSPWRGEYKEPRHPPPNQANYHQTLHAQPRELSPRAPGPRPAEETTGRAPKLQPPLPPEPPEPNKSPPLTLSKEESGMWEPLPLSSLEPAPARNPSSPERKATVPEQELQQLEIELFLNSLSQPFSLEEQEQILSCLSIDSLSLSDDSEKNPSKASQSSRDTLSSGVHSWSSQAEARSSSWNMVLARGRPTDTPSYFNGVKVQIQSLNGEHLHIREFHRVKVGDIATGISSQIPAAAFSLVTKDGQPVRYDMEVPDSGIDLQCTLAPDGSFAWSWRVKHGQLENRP

[8] = biological target: Serine/threonine-protein kinase SIK2 (Homo sapiens) (UniProt Q9H0K1); test: SNF1LK2 Kinase screen; conditions: Compound concentration 1.0 uM
Serine/threonine-protein kinase SIK2 (Homo sapiens), sequence (Q9H0K1 whole entry, looked up): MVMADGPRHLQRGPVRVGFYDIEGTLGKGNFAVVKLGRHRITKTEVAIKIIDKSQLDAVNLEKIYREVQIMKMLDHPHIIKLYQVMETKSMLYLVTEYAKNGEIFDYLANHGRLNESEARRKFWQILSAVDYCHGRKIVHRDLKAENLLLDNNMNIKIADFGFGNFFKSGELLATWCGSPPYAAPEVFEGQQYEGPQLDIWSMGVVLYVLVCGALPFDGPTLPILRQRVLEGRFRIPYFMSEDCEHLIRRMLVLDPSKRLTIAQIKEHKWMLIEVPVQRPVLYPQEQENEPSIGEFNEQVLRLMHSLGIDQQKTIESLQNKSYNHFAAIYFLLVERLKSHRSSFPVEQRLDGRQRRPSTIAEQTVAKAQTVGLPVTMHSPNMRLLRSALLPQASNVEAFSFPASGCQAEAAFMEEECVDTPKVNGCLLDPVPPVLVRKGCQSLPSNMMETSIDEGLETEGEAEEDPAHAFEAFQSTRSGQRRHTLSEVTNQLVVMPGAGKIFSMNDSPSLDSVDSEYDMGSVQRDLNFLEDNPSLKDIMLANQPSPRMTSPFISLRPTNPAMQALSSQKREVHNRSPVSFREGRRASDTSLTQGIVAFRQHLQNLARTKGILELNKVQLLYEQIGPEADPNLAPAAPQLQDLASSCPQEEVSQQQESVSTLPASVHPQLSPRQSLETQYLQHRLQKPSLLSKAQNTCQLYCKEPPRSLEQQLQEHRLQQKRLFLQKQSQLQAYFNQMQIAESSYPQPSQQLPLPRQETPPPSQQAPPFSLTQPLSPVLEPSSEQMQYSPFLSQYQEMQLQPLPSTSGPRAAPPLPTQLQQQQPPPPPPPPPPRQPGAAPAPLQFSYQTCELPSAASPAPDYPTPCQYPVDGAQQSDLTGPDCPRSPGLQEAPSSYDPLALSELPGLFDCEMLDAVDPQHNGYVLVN

[9] = biological target: Adenosine receptor A2a (Homo sapiens) (UniProt P29274); conditions: Compound concentration 10.0 uM
Adenosine receptor A2a (Homo sapiens), sequence (P29274 whole entry): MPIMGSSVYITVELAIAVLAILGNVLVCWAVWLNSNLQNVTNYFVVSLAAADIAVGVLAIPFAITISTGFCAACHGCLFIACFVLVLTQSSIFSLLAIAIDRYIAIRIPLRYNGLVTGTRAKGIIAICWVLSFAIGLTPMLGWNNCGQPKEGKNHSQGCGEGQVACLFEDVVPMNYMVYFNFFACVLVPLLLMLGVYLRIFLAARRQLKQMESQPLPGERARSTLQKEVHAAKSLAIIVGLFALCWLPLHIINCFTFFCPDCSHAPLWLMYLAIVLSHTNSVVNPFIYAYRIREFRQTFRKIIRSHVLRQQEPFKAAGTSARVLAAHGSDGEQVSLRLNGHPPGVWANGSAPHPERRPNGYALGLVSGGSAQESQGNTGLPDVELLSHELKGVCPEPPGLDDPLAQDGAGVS

[10] = biological target: Histamine H2 receptor (Homo sapiens) (UniProt P25021); conditions: Compound concentration 10.0 uM
Histamine H2 receptor (Homo sapiens), sequence (P25021 whole entry): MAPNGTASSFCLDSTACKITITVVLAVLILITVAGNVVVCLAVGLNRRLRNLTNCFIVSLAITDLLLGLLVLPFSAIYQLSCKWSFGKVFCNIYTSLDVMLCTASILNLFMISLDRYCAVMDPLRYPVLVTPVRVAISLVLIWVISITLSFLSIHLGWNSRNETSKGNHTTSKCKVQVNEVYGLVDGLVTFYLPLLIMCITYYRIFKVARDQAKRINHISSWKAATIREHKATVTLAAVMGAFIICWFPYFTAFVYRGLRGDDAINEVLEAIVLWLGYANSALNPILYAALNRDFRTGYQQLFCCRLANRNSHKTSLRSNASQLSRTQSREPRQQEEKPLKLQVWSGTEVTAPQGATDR

[11] = biological target: T2, Muscarinic acetylcholine receptor M1 (Homo sapiens) (UniProt P11229); conditions: Compound concentration 10.0 uM
T2 sequence (whole entry): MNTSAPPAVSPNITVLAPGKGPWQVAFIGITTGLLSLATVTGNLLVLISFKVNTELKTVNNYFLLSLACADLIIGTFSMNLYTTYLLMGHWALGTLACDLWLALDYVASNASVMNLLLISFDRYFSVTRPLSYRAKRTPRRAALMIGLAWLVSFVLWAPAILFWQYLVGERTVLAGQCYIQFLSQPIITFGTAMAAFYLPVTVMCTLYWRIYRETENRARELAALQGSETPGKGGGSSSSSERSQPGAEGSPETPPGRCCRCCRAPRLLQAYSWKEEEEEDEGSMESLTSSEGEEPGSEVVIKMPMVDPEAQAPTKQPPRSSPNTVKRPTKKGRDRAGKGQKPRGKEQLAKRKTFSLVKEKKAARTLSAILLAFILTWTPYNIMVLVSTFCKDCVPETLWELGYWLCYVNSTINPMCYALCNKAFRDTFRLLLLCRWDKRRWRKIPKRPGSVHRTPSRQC

[12] = biological target: Muscarinic acetylcholine receptor M3 (Homo sapiens) (UniProt P20309); conditions: Compound concentration 10.0 uM

Measured: inhibition

C[C@@H]1CN(c2cc(-c3n[nH]c4ccc(OC5(C)CC5)cc34)ncn2)C[C@H](C)O1 [MLi-2]
inactive: [1] 0% | [2] 14% | [3] 23.9% | [4] 1.89% | [5] 2.4% | [6] 14.8% | [7] 78.8% | [8] 7.08% | [9] 1% | [10] 2% | [11] 12% | [12] 26%
